Reference: patent US20140234252A1, “Composition and Methods for the Treatment of Degenerative Retinal Conditions” (The Provost, Fellows, Foundation Scholars, and the other …, priority 2011, published 2014)
Residues, ends and D or L forms follow the SMILES beside them. *: point of attachment. Cbz = O=C(OCc1ccccc1)*; CH2F = FC*

Legend:
human PBMC = test: Cytokine ELISA in LPS-primed, C1Q-activated human PBMC with inhibitors; type: cell-based; settings: PBMC primed with LPS overnight, 5 μg/ml C1Q 6 h, inhibitor added 1 h before C1Q
Procedure: (§1) FIG. 3: Complement factor C1Q, a component of Drusen, activates the NLRP3 inflammasome: (a) Production of IL-1β (left panel) and TNFα (right panel) in BMDMs primed with CEP for 3 h and activated for 6 h with C1q at increasing doses. (b) Western blot of caspase-1 cleavage products in THP1 cells primed with LPS and treated with increasing doses of C1Q. (c) Live cell imaging of immortalised BL6 BMDMs stably expressing YFP-ASC. Cells were primed for 3 hrs with either LPS (top panel) or CEP-HSA followed by treatment with 10 μg C1Q (right panel) for a further 2 hrs. Oligomerisation of ASC-YFP was observed by speck formation, original magnification ×60. (d) IL-1β (left panel) and TNF-α (right panel) production in WT and Nlrp3^-/- BMDCs primed with LPS (3 h) and activated with C1Q (16 h) at increasing doses (2.5, 5 and 10 μg C1Q). (e) IL-1β, IL-18 and IL-6 production in human PBMC primed with […] LPS overnight and activated with 5 μg ml C1Q for 6 h, with the addition, 1 h before C1Q treatment of increasing doses (10 fold) of ZVAD (caspase-1 inhibitor). All ELISA data are representative of a minimum of 3 separate experiments carried out in triplicate.
FIG. 13: IL-1β, IL-18 and IL-6 production in human PBMC primed with 100 ng/ml LPS overnight and activated with 5 μg/ml C1Q for 6 h, with the addition, 1 h before C1Q treatment of increasing doses (10 fold) of (a) DPI (ROS inhibitor), (b) Bafilomycin (inhibits lysosomal acidification), (c) CA-074 Me (cathepsin B inhibitor).
(§2) ELISA's were used to quantify cytokines in supernatants from the various experimental groups used throughout this study. IL-1β (RnD Systems), IL-18 (MBL International), IL-6 (RnD Systems), TNF-α (RnD Systems) and VEGF (RnD Systems) were analyzed throughout. All ELISA's were conducted a minimum of 3 times in triplicate. Inhibitors used during this study were added at the following highest concentrations 1 h prior to inflammasome activation: 1 μg/ml of caspase-1 inhibitor VI (Calbiochem), 5 μM cytochalasin D (Sigma Aldrich, Ireland), 10 μM CA-074 Me (cathepsin B inhibitor) (Sigma Aldrich, Ireland), 10 μM DPI (Sigma Aldrich, Ireland).
(§3) ARPE-19 cell line (ATCC CRL 2302) were obtained from LGC promochem, THP1 cells and primary isolated human peripheral blood mononuclear […] (PBMCs) were used for in vitro inflammasome activation assays. Cells were cultured at 37° C., 5% CO2, 95% air in a 1:1 mixture of Dulbecco's modified Eagle's medium (DMEM) and Ham's F12 medium with 1.2 g/L sodium bicarbonate, 2.5 mM L-glutamine, 15 mM HEPES, 0.5 mM sodium pyruvate (Sigma Aldrich) with 10% foetal calf serum (FCS). BMDCs and BMDMs were also isolated from WT, NLRP3-/-, TLR-2-/-, C3H/HeN and C3H/HeJ mice on a congenic C57/B16 background. BMDCs and BMDMs were stained with anti-CD11c-APC and anti-CD11b-PeCy7. Cells were gated on live single cells and expression of CD11c and CD11b was assesed by flow cytometry (FIG. 19). Mouse bEnd.3 microvascular endothelial cells were grown on fibronectin (Sigma Aldrich Ireland) coated tissue culture flasks in DMEM containing Glutamax and 10% FCS.

wet AMD = settings: human, in vivo; cited from earlier work
ARPE-19 cells = test: VEGF ELISA in ARPE-19 cells treated with recombinant IL-18; type: cell-based; settings: increasing doses of IL-18, 24 hrs, growth medium
Procedure: as §2
(§4) ARPE-19 cell line (ATCC CRL 2302) were obtained from LGC promochem, THP1 cells and primary isolated human peripheral blood mononuclear […] (PBMCs) were used for in vitro inflammasome activation assays. Cells were cultured at 37° C., 5% CO2, 95% air in a 1:1 mixture of Dulbecco's modified Eagle's medium (DMEM) and Ham's F12 medium with 1.2 g/L sodium bicarbonate, 2.5 mM L-glutamine, 15 mM HEPES, 0.5 mM sodium pyruvate (Sigma Aldrich) with 10% foetal calf serum (FCS). […]
(§5) We reasoned that IL-18 might confer its protection via the regulation of VEGF synthesis. To test this hypothesis we treated ARPE19 cells and a mouse brain microvascular endothelial cell line (bEnd.3) with recombinant IL-18 and subsequently analysed VEGF levels in the growth medium. […]

[1] = test system: mouse brain microvascular endothelial cell line (bEnd.3); test: VEGF ELISA in bEnd.3 cells treated with recombinant IL-18; type: cell-based; settings: increasing doses of IL-18, 24 hrs, growth medium
Procedure: as §2, §4, §5

[2] = test system: intraocular neovascularization in C57BL/6 mice; settings: administered to C57BL/6 mice during development of oxygen induced retinopathy; cited from earlier work
[3] = Zeta potential measurement of C1Q in solution; type: physicochemical
BMDMs = test: Cytokine ELISA in BMDMs activated with C1Q; type: cell-based, mouse
Procedure: as §1, §2
(§6) ARPE-19 cell line (ATCC CRL 2302) were obtained from LGC promochem, THP1 cells and primary isolated human peripheral blood mononuclear […] (PBMCs) were used for in vitro inflammasome activation assays. […]

BMDCs = test: Cytokine ELISA in WT and Nlrp3-/- BMDCs primed with LPS and activated with C1Q; type: cell-based, mouse; settings: for production of IL-1β: LPS 3 h, C1Q 16 h
Procedure: as §1, §2, §6

THP1 cells = test: Western blot of caspase-1 cleavage products in THP1 cells; type: cell-based, human; settings: THP1 cell lysates
Procedure: Generally, antibodies specific for caspase-1 (Santa-Cruz Biotech), beta-actin (Abcam), NLRP3 (Sigma Aldrich, Ireland), TLR-4 (Santa-Cruz Biotech) were incubated on membranes overnight at 4° C. Membranes were washed with TBS, and incubated with a secondary antibody against rabbit (IgG) with Horse-Radish-Peroxidase (HRP) conjugates (1:2500) (Sigma-Aldrich, Ireland), or mouse (IgG) (1:1000), (Sigma-Aldrich, Ireland), for 3 hours at room temperature. Immune complexes were detected using enhanced chemiluminescence (ECL). All Western blots were repeated a minimum of 3 times.
as §3, with “Mouse bEnd.3 microvascular endothelial cells were grown on fibronectin (Sigma Aldrich Ireland) coated tissue culture flasks in DMEM containing Glutamax and 10% FCS.” left out

BMDMs expressing YFP-ASC = test: ASC speck formation in immortalised BMDMs expressing YFP-ASC; type: cell-based, mouse; settings: primed BMDMs, live cell imaging
Description: Live cell imaging of speck formation was undertaken using a temperature and CO2 regulated confocal laser scanning microscopy (Olympus FluoView TM FV1000).

## CC(NC(=O)C(NC(=O)OCc1ccccc1)C(C)C)C(=O)NC(CC(=O)O)C(=O)CF (stereo not drawn) [ZVAD] (Cbz-Val-Ala-Asp-CH2F; configuration not given here)
Human PBMC
  C1Q induced IL-1β production: decreased
  C1Q induced IL-18 production: decreased

## Infliximab: marketed drug tested in clinical trials in wet AMD
Wet AMD
  subjects in whom symptoms were greatly exacerbated: more than 50%

## CO/C1=C\C(C)=C\[C@@H](C)[C@@H](O)[C@@H](C)C/C(C)=C/C=C/[C@H](OC)[C@@H]([C@@H](C)[C@@H](O)[C@H](C)[C@@]2(O)C[C@@H](O)[C@H](C)[C@@H](C(C)C)O2)OC1=O [bafilomycin A]
Human PBMC
  C1Q induced IL-1β production: restricted
  C1Q induced IL-18 production: restricted
  IL-6 production: no effect

## c1ccc2c(c1)[I+]c1ccccc1-2 [DPI]
Human PBMC
  C1Q induced IL-1β production: no effect

## IL-18: 18KDa mature IL-18; protein sequence NCBI Accession no. NP—001553.1; also covers recombinant IL-18
ARPE-19 cells
  levels of VEGF secreted: significantly decreased
[1]
  levels of VEGF secreted: significantly decreased
[2]
  neovascularization: no inhibition of neovascularization

## CCCNC(=O)[C@H]1O[C@@H]1C(=O)N[C@H](C(=O)N1CCC[C@H]1C(=O)OC)[C@@H](C)CC [CA-074 Me]
Human PBMC
  C1Q induced IL-1β production: restricted
  C1Q induced IL-18 production: restricted
  IL-6 production: no effect

## C1Q: complement factor, primary initiating component of the classical complement pathway; drusen component, isolated from human blood
[3]
  zeta average (zeta potential): 11.8 mV
BMDMs; BMDMs primed with CEP-HSA 3 h, C1Q 6 h
  production of IL-1β: produced significant levels of IL-1β
BMDMs; BMDMs primed with CEP-HSA, C1Q added
  secretion of TNFα: remained unchanged
BMDMs; C1Q alone, unprimed BMDMs
  production of IL-1β: did not cause the production of IL-1β
BMDCs; Nlrp3-/- cells
  production of IL-1β: failed to produce IL-1β
BMDCs; WT BMDCs
  production of IL-1β: did produce a significant level of IL-1β
BMDCs; WT and Nlrp3-/- BMDCs, LPS primed, C1Q
  levels of TNFα: remained unchanged
THP1 cells
  cleaved caspase-1 p10: observed cleaved caspase-1 p10
BMDMs expressing YFP-ASC
  ASC oligomerisation (YFP-ASC speck formation): could cause ASC oligomerisation
